Assay results as given in patent US20240344103A1, “IN VITRO MODELS FOR ESTIMATING DRUG DOSAGE” (Hennepin Healthcare Research Institute, priority 2021, published 2024).
“Also recorded” adds a separate entry of the source. Read-outs that look alike come from different tables or passages of the source. Each block holds one compound with its values, some of them ahead of it.

What was measured:
Gut Microbiota = settings: cited from earlier work
stool microbiota [1] = test: In vitro anaerobic culture of patient stool microbiome with MPA or MPAG, HPLC-MS/MS of supernatant; format: in vitro ADME, human
Experimental: A human microbiome sample from stool was collected from a patient between days 15-45 post-transplant, during their 12-hour pharmacokinetic visit. Prior to the initiation of the culture of microbiome stool sample, in the MPA arm of the experiment, a 1 mg/mL stock solution of MPA was diluted to […] in thirteen anaerobic culture tubes by adding 0.7 mL of the stock MPA solution to 6.3 mL of YCFA (Yeast extract-Casein hydrolysate-fatty acids) medium broth. Likewise, for the MPAG arm of the experiment, a […] stock solution of MPAG was diluted to […] in thirteen anaerobic culture tubes by adding 0.7 mL of the stock MPAG solution to 6.3 mL of YCFA (Yeast extract-Casein hydrolysate-fatty acids) medium broth.
Stool aliquots of ˜0.5 g were incubated in separate YCFA tubes containing MPA or MPAG for six hours, 24 hours, or 48 hours in separate tubes, at 37° C. under anaerobic conditions (FIG. 2). All aliquots were collected at each timepoint in triplicate. Aliquots were also collected from MPA and MPAG tubes without any stool samples at zero, six hours, 24 hours, and 48 hours to serve as controls for this experiment.
After incubation, samples were […] at 16,000×g for 10 minutes, and the supernatant was collected and stored at −80° C. prior to high performance liquid chromatography-tandem mass spectrometry (HPLC-MS/MS) analysis. The supernatant was assessed for the presence and concentration of total MPA and MPAG using a validated mass spectrometry assay. Total MPA and MPAG concentration were determined based on certified analytical reference standards of […] of MPA and MPAG. These analytical reference standards were used as internal standards during the mass spectrometry assay.

stool microbiota [2] = test: as above; format: in vitro ADME, human; settings: stool frozen at −80° C. for mean 312 days, thawed at 4° C. overnight, assay at 37° C.; six and 24 hours
[3] = 12-hour MPA pharmacokinetic profile in kidney transplant patients taking MMF; format: in vivo, human; settings: five kidney transplant participants on MMF
Experimental: The following example used a stool sample of a kidney transplant patient who was on a steady state dose of 1 gram of mycophenolate mofetil (MMF) twice a day (FIG. 1). This patient underwent intensive pharmacokinetic sampling over 12 hours to assess enterohepatic recirculation (EHR) carefully and accurately. Once participants reach a steady state dose between days 15-45 post-transplant, fourteen blood samples were obtained at the time the morning MMF does was administered and at 30 minutes, one hour, two hours, three hours, four hours, five hours, six hours, seven hours, eight hours, nine hours, ten hours, 11 hours, and 12 hours following the morning MMF dose. The sampling strategy assured capture of the secondary peak and EHR characteristics.
Five kidney transplant recipients taking MMF and tacrolimus as maintenance immunosuppression had their six-hour MPA levels assessed in the in vitro assay exposing microbiome to MPAG (FIG. 5). These patients also underwent an extensive 12-hour MPA pharmacokinetic (PK) profile (FIG. 6), and the stool samples were collected at the time of the PK profile. The percent EHR in these kidney transplant recipients was defined as [MPA AUC6-12 hour]/[AUC0-12 hour]×100 as a measure of their in vivo EHR. The correlation coefficient between the six-hour MPA level from the in vitro model with percentage EHR was 0.82 (95% CI—0.21 to 0.98, P=0.08).

[4] = effect of gut microbiome on the compound

Compound: O=C(O)Cc1ccccc1Nc1c(Cl)cccc1Cl [Diclofenac]
- Effect of microbial modification (Gut Microbiota; [4]): Toxicity [2, 3]

Compound: CN(C)C(=N)N=C(N)N [Metformin]
- Effect of microbial modification (Gut Microbiota; [4]): Activation [2, 11]

Compound: COc1c(C)c2c(c(O)c1C/C=C(\C)CCC(=O)OCCN1CCOCC1)C(=O)OC2 [Mycophenolate Mofetil (MMF), mycophenolate mofetil]
- Effect of microbial modification (Gut Microbiota; [4]): Toxicity [4-6]

Compound: Nc1nc(Cl)nc2c1ncn2[C@H]1C[C@H](O)[C@@H](CO)O1 [Cladribine]
- Gut Microbiota Modification (Gut Microbiota): Inhibited efficacy
- Effect of microbial modification (Gut Microbiota; [4]): Inactivation[7]

Compound: Nc1nc(F)nc2c1ncn2[C@@H]1O[C@H](COP(=O)(O)O)[C@@H](O)[C@@H]1O [Fludarabine de phosphate]
- Gut Microbiota Modification (Gut Microbiota): Improved efficacy
- Effect of microbial modification (Gut Microbiota; [4]): Activation [7]

Compound: Ipilimumab: Antil CTLA-4 human monoclonal antibody (Ab) therapeutic drug
- Effect of microbial modification (Gut Microbiota): Activation [2, 10]

- MPAG concentration in the MPA tubes incubated with stool microbiome samples (stool microbiota [1]; MPA arm, MPA to MPAG conversion, six, 24, 48 hours): no detectable concentrations
- MPAG concentration in control aliquots (stool microbiota [1]; MPAG in YCFA without stool, zero, six, 24, 48 hours): remained stable
Compound: COc1c(C)c2c(c(O[C@@H]3O[C@H](C(=O)O)[C@@H](O)[C@H](O)[C@H]3O)c1C/C=C(\C)CCC(=O)O)C(=O)OC2 [MPAG, mycophenolic acid glucuronide]
- MPAG concentration in MPAG tubes incubated with stool microbiome samples (stool microbiota [1]; MPAG arm, one patient stool, anaerobic, six hours post incubation): rapid metabolism; also recorded: rapid decrease
- MPAG to MPA conversion by gut microbiota (stool microbiota [1]; stool of five kidney transplant patients, YCFA, anaerobic, first six hours): Rapid metabolism; also recorded: high MPAG to MPA conversion
- MPAG to MPA conversion in repeat assay (stool microbiota [2]): showed ability of the stool microbiome sample to metabolism MPAG to MPA as before

Compound: CCc1c2c(nc3ccc(OC(=O)N4CCC(N5CCCCC5)CC4)cc13)-c1cc3c(c(=O)n1C2)COC(=O)[C@]3(O)CC [Irinotecan]
- Effect of microbial modification (Gut Microbiota; [4]): Toxicity [1, 2]

Compound: C=CC[C@@H]1/C=C(\C)C[C@H](C)C[C@H](OC)[C@H]2O[C@@](O)(C(=O)C(=O)N3CCCC[C@H]3C(=O)O[C@H](/C(C)=C/[C@@H]3CC[C@@H](O)[C@H](OC)C3)[C@H](C)[C@@H](O)CC1=O)[C@H](C)C[C@@H]2OC [Tacrolimus]
- Effect of microbial modification (Gut Microbiota; [4]): Inactivation [8]

Compound: CC1=C(CC(=O)O)c2cc(F)ccc2/C1=C\c1ccc([S+](C)[O-])cc1 (stereo not shown) [Sulindac]
- Effect of microbial modification (Gut Microbiota; [4]): Toxicity [2, 4-6]

Compound: NC(=O)c1cc(N2CC2)c([N+](=O)[O-])cc1[N+](=O)[O-] [CB1954]
- Gut Microbiota Modification (Gut Microbiota): Improved efficacy
- Effect of microbial modification (Gut Microbiota; [4]): Activation [7]

Compound: Nc1ccn([C@@H]2O[C@H](CO)[C@@H](O)C2(F)F)c(=O)n1 [Gemcitabine]
- Gut Microbiota Modification (Gut Microbiota): Inhibited efficacy
- Effect of microbial modification (Gut Microbiota; [4]): Inactivation[7]

Compound: COc1c(C)c2c(c(O)c1C/C=C(\C)CCC(=O)O)C(=O)OC2 [MPA, mycophenolic acid]
- MPA concentration after incubation with stool bacteria compared to control samples (stool microbiota [1]; MPA arm, one kidney transplant patient stool, YCFA, 37° C., anaerobic, six, 24 and 48 hours, controls without stool): did not change; also recorded: no difference was detected
- MPA concentration relative to amount expected from full MPAG conversion (stool microbiota [1]; MPAG arm, one patient stool, 24 and 48 hours): higher than the amount expected if all MPAG is converted to MPA
- MPA concentration in MPAG tubes incubated with stool microbiome samples (stool microbiota [1]; MPAG arm, starting at six hours, upward trend at 24 and 48 hours): increase
- Release of MPA bioaccumulated in microbiome cells on addition of MPAG (stool microbiota [1]; in vitro assay, MPAG substrate added): led to the release of MPA that had accumulated inside the cells; also recorded: promotes the release of bioaccumulated MPA
- % EHR (MPA AUC6-12 hour/AUC0-12 hour×100), mean [3]: 46%
- % EHR (MPA AUC6-12 hour/AUC0-12 hour×100), range [3]: 41-60%
- mean MPA trough ([3]; SD ±1.66): 3.5 mg/L
- mean dose normalized MPA AUC0-12 ([3]; ±0.02): 0.07 mg·h/L
